Assay results reported in patent publication US9932353B2, “Imidazopyrimidine macrocycles as inhibitors of human immunodeficiency virus replication” (VIIV HEALTHCARE UK (NO. 5) LIMITED, priority 2014, dated 2018).
Like-named read-outs stand apart in the source and are kept apart here.

System: recombinant NL-RLuc virus (HIV NL4-3 with Renilla Luciferase) in MT-2 cells
Test: Inhibition of HIV replication (NL-RLuc virus in MT-2 cells, luciferase readout)
Format: cell-based
Source text: Inhibition of HIV Replication:
A recombinant NL-RLuc proviral clone was constructed in which a section of the nef gene from NL4-3 was replaced with the Renilla Luciferase gene. This virus is fully infectious and can undergo multiple cycles of replication in cell culture. In addition, the luciferous reporter provides a simple and easy method for quantitating the extent of virus growth and consequently, the antiviral activity of test compounds. The plasmid pNLRLuc contains the proviral NL-Rluc DNA cloned into pUC18 at the PvuII site. The NL-RLuc virus was prepared by transfection of 293T cells with the plasmid pNLRLuc. Transfections were performed using the LipofectAMINE PLUS kit from Invitrogen (Carlsbad, Calif.) according to the manufacturer and the virus generated was titered in MT-2 cells. For susceptibility analyses, the titrated virus was used to infect MT-2 cells in the presence of compound, and after 5 days of incubation, cells were processed and quantitated for virus growth by the amount of expressed luciferase. Assay media was RPMI 1640 supplemented with 10% heat inactivated fetal bovine serum (FBS), 100 units/ml penicillin G/100 units/ml streptomycin, 10 mM HEPES buffer pH 7.55 and 2 mM L-glutamine. The results from at least 2 experiments were used to calculate the EC50 values. Luciferase was quantitated using the Dual Luciferase kit from Promega (Madison, Wis.). Susceptibility of viruses to compounds was determined by incubation in the presence of serial dilutions of the compound. The 50% effective concentration (EC50) was calculated by using the exponential form of the median effect equation where (Fa)=1/[1+(ED50/drug conc.)^m] (Johnson V A, Byington R T. Infectivity Assay. In Techniques in HIV Research. ed. Aldovini A, Walker B D. 71-76. New York: Stockton Press. 1990).

[1] = NL-RLuc virus, MT-2 cells, 5 days of incubation, 10% FBS, luciferase, read-out: EC50

Compound	EC50 (MT2, 120 h) [nM]	EC50 [1] [nM]
Cc1ccc2c(c1)-c1cccc(c1)-c1cn3c(c([C@H](OC(C)(C)C)C(=O)O)c(C)nc3n1)N1CCC(C)(CC1)OCCCC[C@H](C)O2 [Example 1, (2S)-2-(tert-Butoxy)-2-[(22S)-4,17,22,28-tetramethyl-21,27-dioxa-1,5,7,34-tetraazahexacyclo[26.2.2.1^6,^9.1^10,^14.0^2,^7.0^15,^20]tetratriaconta-2,4,6(34),8,10(33),11,13,15(20),16,18-decaen-3-yl]acetic Acid]	8	–
Cc1nc2nc3cn2c(c1[C@H](OC(C)(C)C)C(=O)O)N1CCC(C)(CC1)OCCCCC(C)Oc1ccc(F)cc1-c1cccc-3c1 (stereo partly drawn) [Example 2, (2S)-2-(tert-butoxy)-2-[(22S/R)-17-fluoro-4,22,28-trimethyl-21,27-dioxa-1,5,7,34-tetraazahexacyclo[26.2.2.1^6,^9.1^10,^14.0^2,^7.0^15,^20]tetratriaconta-2,4,6(34),8,10(33),11,13,15(20),16,18-decaen-3-yl]acetic Acid]	–	8
(2S)-2-(tert-butoxy)-2-[(22S/R)-17-fluoro-4,22,28-trimethyl-21,27-dioxa-1,5,7,34-tetraazahexacyclo[26.2.2.1^6,^9.1^10,^14.0^2,^7.0^15,^20]tetratriaconta-2,4,6(34),8,10(33),11,13,15(20),16,18-decaen-3-yl]acetic Acid [Example 3]	–	77
